No end group written: not given here.
What was measured:
[1] = tested on: E. coli ML-35p; experiment: Kinetics of permeabilization of the inner bacteria membrane (ONPG); assay type: cell-based, Escherichia coli
Description: The ability of the antimicrobial peptides for the respective permeabilization of the outer and inner bacteria membrane was tested by way of example on E. coli ML-35p (made available by Dr. R. E. Lehrer, Center for Health Sciences, Los Angeles, Calif., USA). The peptides were incubated in serial dilution with E. coli ML-35p and the time-dependent release of cell-internal components was measured in a slightly modified protocol according to Ericsson et al. (2002). For this purpose, the bacteria were cultured in Luria-Bertani (LB) medium with 100 μg/ml ampicillin (Fluka, Taufkirchen, Germany) until reaching an optical density of 0.4 at 600 nm wavelength. Then, the cells were washed three times by centrifugation at 4000 g for 1 min and subsequent up-take in 10 mM HEPES buffer pH 7.2. Finally, the cells were diluted to an optical density of 0.3 at 600 nm wavelength. To measure the permeabilization of the outer membrane, nitrocefin (Merck, Darmstadt, Germany) was diluted in HEPES buffer to a concentration of 60 μg/ml. The antimicrobial peptides were diluted in HEPES buffer to an end concentration of 12 μM, 24 μM, 48 μM and 96 μM end concentration. In the next step, 50 μl of nitrocefin were admixed with 50 μl of antimicrobial peptide and 50 μl of bacteria suspension such that an end concentration of 20 μg/ml of nitrocefin, 4 μM to 32 μM of antimicrobial peptide and bacteria with an optical density of 0.1 to 600 nm were present. The samples were mixed and the absorption at 500 nm wavelength was measured directly over a period of at least 90 min at 37° C. with regular shaking in a FLUOstar omega Microplate Reader (BMG Labtech, Ortenberg, Germany). The investigation of the permeabilization of the inner membrane was carried out in the same way except that instead of the nitrocefin accordingly 0-nitrophenyl-beta-D-galactoside (ONPG, Sigma-Aldrich) in an end concentration of 100 μg/ml was used and the absorption change was determined at a wavelength of 420 nm. The control used was samples without antimicrobial peptide, the positive control used for the membrane permeabilization was polymyxin B (Sigma-Aldrich) in an end concentration of 5 μM. For the data evaluation, firstly the measurement values of the corresponding negative controls were deducted from the measurement values of the samples, and the difference was then divided by the corresponding measurement values of the permeabilization control. Then, a graphical evaluation was carried out, the calculated values being plotted against the peptide concentration and being fitted with the help of the Origin Pro 8.1 G Software (OriginLab) according to a sigmoidal model. As representative examples, FIGS. 4 and 5 show the graphical evaluation for the kinetic investigation of the permeabilization of the outer E. coli bacteria membrane for the peptides N4 (FIG. 4) and O1 (FIG. 5).
As comparison parameter between the peptides, the times were ascertained from this at which 50% of the final signal level was reached. For this purpose, the equation with the percentage membrane permeabilization y, the time x in minutes, the lower plateau A1, the upper plateau A2, the point of inflection Log X0 and the Hill incline p
[formula] was used. The calculation of the parameters A1, A2, Log X0 and p was performed by the program by reference to the compensating curve. Further resolution of equation 5.1 for the case y=50 then produced for x the desired time at which the half-maximum signal level was reached.

[2] = tested on: human histiocytic lymphoma cell line U937; experiment: Cytotoxicity, direct membrane damage (CytoTox 96), LD50; assay type: cell-based; conditions: U937, two hours at 37° C., 0.25-64 μM
How it was run: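 Membrane damage in peptide-treated U937 cells measured as LDH release in culture supernatant (30 min substrate, room temperature, dark; absorbance 490 nm). Negative-control signal subtracted and normalized to permeabilization control. LD50 (μM) from sigmoidal fit of relative cytotoxicity (%) versus peptide concentration at 50%.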

Row | Compound | Inner membrane, time to 50% of final signal ([1]; 4 μM peptide) [min] | Inner membrane, time to 50% of final signal ([1]; 8 μM peptide) [min] | Inner membrane, time to 50% of final signal ([1]; 16 μM peptide) [min] | Inner membrane, time to 50% of final signal ([1]; 32 μM peptide) [min] | Toxicity LD50 [2] [µM]
1 | CC[C@H](C)[C@H](NC(=O)CN)C(=O)NCC(=O)N[C@@H](C)C(=O)N[C@H](C(=O)N[C@@H](CC(C)C)C(=O)N[C@@H](CCCCN)C(=O)N[C@H](C(=O)N[C@@H](CC(C)C)C(=O)N[C@H](C(=O)N[C@H](C(=O)NCC(=O)N[C@@H](CC(C)C)C(=O)N1CCC[C@H]1C(=O)N[C@@H](C)C(=O)N[C@@H](CC(C)C)C(=O)N[C@H](C(=O)N[C@@H](CO)C(=O)N[C@@H](Cc1c[nH]c2ccccc12)C(=O)N[C@H](C(=O)N[C@@H](CCCCN)C(=O)N[C@@H](CCCNC(=N)N)C(=O)N[C@@H](CCCCN)C(=O)N[C@@H](CCCNC(=N)N)C(=O)N[C@@H](CCC(N)=O)C(=O)N[C@@H](CCC(N)=O)C(N)=O)[C@@H](C)CC)[C@@H](C)CC)[C@@H](C)O)[C@@H](C)O)C(C)C)C(C)C [Melittin] | 18 | 12 | 9 | 6 | 1.4
2 | ILPWKWPWWPWRR [Indolicidin] | >90 | >90 | >90 | >90 | >64
3 | KILILIKRK-OH [N4] | >90 | >90 | >90 | >90 | 
4 | KRKRKILILIKRK-OH [N1] | >90 | >90 | 38 | 32 | 
5 | MPRRRRSSSRPVRRRRRPRVSRRRRRRGGRRR (Protamine) [protamine from salmon, grade IV, histone-free (Sigma-Aldrich)] | >90 | >90 | >90 | >90 | >64

— patent US10556926B2, “Synthetic artificial peptides with antimicrobial effect” (priority 2014, dated 2020)
